# Values quoted from earlier work as cited in patent US20060014804A1, “Cyanoguanidine prodrugs” (Leo Pharma A/S, priority 2002, published 2006).
# How the values were obtained:
# [1] = system: human lung and breast cancer cell lines
# human tumour cells [2] = conditions: nude mice transplanted with human tumour cells, also paclitaxel-resistant tumour cells
# human tumour cells [3] = conditions: compared with daunorubicin and paclitaxel
# [4] = system: human lung cancer tumour xenograft; conditions: nude mice
# [5] = system: normal human endothelial cells
structure (smiles),measurement,setting,value
N#CNC(=Nc1ccncc1)NCCCCCCOc1ccc(Cl)cc1 [N-(6-(4-chlorophenoxy)hexyl)-N′-cyano-N″-(4-pyridyl)guanidine],antiproliferative activity in vitro,[1],high antiproliferative activity in vitro
same,antitumour activity in vivo,human tumour cells [2],substantial antitumour activity
same,potency in vitro,human tumour cells [3],comparable to that of the reference cytostatic agents daunorubicin and paclitaxel
same,antitumour activity in the nude mouse model,[4],potent antitumour activity
same,antiproliferative activity on normal human endothelial cells,[5],considerably less antiproliferative activity
